The target in data set [1] is T1, TTR in human blood plasma (Homo sapiens, UniProt P02766).
T1 construct: from tissue; host or cells: human blood plasma
The data set is described as follows: plasma TTR binding selectivity, antibody capture method. The conditions noted are these: inhibitor 10.8 μM, 24 h, 37° C. As for the experimental part:
Inhibitor binding selectivity to TTR in human blood plasma was assessed using a previously established antibody capture method (Purkey, H. E.; et al. Proc. Natl. Acad. Sci. USA 2001, 98, 5566-5571). In this evaluation, inhibitors (10.8 μM, ˜2-3× the natural concentration of TTR) are incubated in human blood plasma for 24 h at 37° C. Quenched sepharose resin is then added to the plasma to remove any small molecules that would bind to the resin as opposed to TTR. TTR and any TTR-bound small molecule is then immunocaptured using a polyclonal TTR antibody covalently attached to sepharose resin. After washing the resin (5×10 min washes), the antibody-TTR complex is dissociated at high pH and analyzed by RP-HPLC. The relative stoichiometry between TTR and inhibitor is then calculated from their HPLC peak areas using standard curves.
The procedures used for bacterial expression of TTR (Lai, Z.; et al. Biochemistry 1996, 35, 6470-6482), the stagnant fibril formation assay (Colon, W.; Kelly, J. W. Biochemistry 1992, 31, 8654-8660; Lai, Z.; et al. Biochemistry 1996, 35, 6470-6482), the blood plasma binding selectivity assay (Purkey, H. E.; et al. Proc. Natl. Acad. Sci. USA 2001, 98, 5566-5571), and analytical ultracentrifugation (Lashuel, H. A.; et al. Biochemistry 1998, 37, 17851-17864) have all been described in detail previously.

Data set [2] concerns the target T2, WT-TTR (Homo sapiens, UniProt P02766).
T2 construct: made in house
As to conditions: inhibitor 7.2 μM, WT-TTR 3.6 μM, pH 4.4, 72 h; cited from earlier work.

The target of data set [3] is T2, WT-TTR. The data set is described as follows: time course analysis of WT-TTR fibril formation inhibition. Format: biochemical. As to conditions: for rate of TTR amyloidogenesis mediated by partial acidification relative to control: inhibitor 7.2 and 3.6 μM, WT-TTR 3.6 μM, pH 4.4, turbidity at 500 nm. As to the method:
Time course analysis of WT-TTR fibril formation inhibition by compounds 25, 47, and 64. Compounds 25, 47, and 64 were dissolved in DMSO to provide 7.2 mM primary stock solutions (10× stocks), from which 5- and 10-fold DMSO dilutions yielded 1.44 mM (2×) and 0.72 mM (1×) secondary stock solutions, respectively. 495 μL of 0.4 mg/mL (7.2 μM) WT-TTR solution (10 mM sodium phosphate, 100 mM KCl, and 1 mM EDTA, pH 7.2), and 5 μL of either the 1.44 or 0.72 mM inhibitor secondary stock solutions were added to disposable UV cuvettes, vortexed briefly, then incubated for 30 min at 25° C. The pH was then adjusted to 4.4 with addition of 500 μL of acidic buffer (100 mM acetate, 100 mM KCl, 1 mM EDTA, pH 4.2), and the final 1 mL solutions were vortexed again and incubated in the dark at 37° C. without agitation. At 0, 4, 8, 12, 25, 49, 74, 100, 122, 145, and 169 h time points after acidification, the solutions were vortexed and the turbidity at 500 nm was measured. Control samples containing 5 μL of pure DMSO were prepared and analyzed as above for comparison. Small molecule and TTR control samples were prepared in groups of 10 to prevent disturbance of the cuvettes during incubation. Samples were discarded after their turbidities were measured.
FIG. 10 is a plot of the timecourse analysis of WT-TTR (3.6 μM) fibril formation mediated by partial acid denaturation in the absence (▴) and presence of 7.2 μM (⋄) and 3.6 μM (◯) inhibitors 25, 47, and 64, as measured by turbidity at 500 nm (see color scheme within Figure to differentiate inhibitors). It is hard to discern which compound is most efficacious in the black and white plot.

In data set [4] the target is T3, WT-TTR tetramer (Homo sapiens, UniProt P02766).
T3 construct: made in house
The data set is described as follows: time course analysis of WT-TTR tetramer dissociation by linked monomer unfolding in urea. As to conditions: for rate of TTR tetramer dissociation in 6M urea: inhibitor 7.2 and 3.6 μM, TTR 3.6 μM, far-UV CD. It counts as biochemical. The text has this:
The ability of these inhibitors to impose kinetic stability on tetrameric TTR is best evaluated by assessing the rate of TTR tetramer dissociation (Hammarstrom, P.; et al. Science 2003, 299, 713-716; Hammarstrom, P.; et al. Proc. Natl. Acad. Sci. USA 2002, 99, 16427-16432). Under acidic conditions tetramer dissociation leads to amyloidogenesis, whereas in the presence of chaotropes (6M urea), tetramer dissociation leads to monomer unfolding. The influence of inhibitors 25, 47 and 64, representing the three structural classes of dibenzofuran-based inhibitors, on the rates of tetramer dissociation under acid- and urea-mediated denaturing conditions was probed. […] The rate of TTR tetramer dissociation in 6M urea is easily monitored by linking the slow quaternary structural changes to rapid tertiary structural changes that are easily monitored by spectroscopic methods (Hammarstrom, P.; et al. Proc. Natl. Acad. Sci. USA 2002, 99, 16427-16432).
Time course analysis of WT-TTR tetramer dissociation inhibition by compounds 25, 47, and 64 evaluated by linked-monomer unfolding in urea. Compounds 25, 47, and 64 were dissolved in DMSO to provide 10 mM primary stock solutions, from which 10-fold EtOH dilutions yielded 1 mM secondary stock solutions. 200 μL of 1.0 mg/mL (18 μM) WT-TTR solution (50 mM sodium phosphate, 100 mM KCl, and 1 mM EDTA, pH 7.2), and either 7.2 or 3.6 μL (2× and 1×, respectively) of 1 mM inhibitor secondary stock solutions were added to 2 mL eppendorf tubes, vortexed briefly, and incubated for 15 min at 25° C. 100 μL of the TTR•inhibitor solutions were added to 900 μL of urea buffer (6.67 M urea, 50 mM sodium phosphate, 100 mM KCl, 1 mM EDTA, pH 7.2), and the final 1 mL solutions were vortexed again and incubated in the dark at 25° C. without agitation. At 0, 4, 11, 24, 49, 73, 97, 122, 146, and 170 h time points after mixing with urea, the circular dichroism spectra were measured between […], with scanning every 0.5 nm and averaging for 5 s. […] Control samples containing 7.2 μL of 10% DMSO in EtOH were prepared and analyzed as above for comparison. […] TTR tetramer dissociation is linked to the rapid (˜500,000× faster) monomer denaturation as measured through this β-sheet loss (Hammarstrom, P.; et al. Proc. Natl. Acad. Sci. USA 2002, 99, 16427-16432).
FIG. 11 is a plot of the timecourse analysis of WT-TTR (3.6 μM) tetramer dissociation (6.0 M urea) in the absence (▴) and presence of 7.2 μM (⋄) and 3.6 μM (◯) concentrations of inhibitors 25, 47, and 64 (see color scheme within Figure to differentiate inhibitors). Slow tetramer dissociation is not detectable by far-UV CD spectroscopy, but this process is linked to rapid (˜500,000× faster) monomer denaturation as monitored by loss of β-sheet content easily followed by circular dichroism spectroscopy. […]

The nature of data set [5]: precipitation of small molecules under acid-mediated amyloidogenic conditions in the absence of TTR. It counts as physicochemical. The conditions noted are these: 3.6 μM, pH 4.4, 37° C., 72 h. As to the method:
TTR amyloid inhibition efficacy was probed using a stagnant fibril formation assay described previously, wherein partial denaturation was triggered by acidification (pH 4.4, 37° C.) (Colon, W.; Kelly, J. W. Biochemistry 1992, 31, 8654-8660). Briefly, a test compound (7.2 or 3.6 μM) is incubated with TTR (3.6 μM) for 30 min in pH 7 buffer. Amyloidogenesis is then initiated by lowering to pH 4.4, where maximal fibril formation is observed with WT-TTR after 72 h (37° C.). […] From experience we know that excellent inhibitors allow <10% fibril formation at a small molecule concentration of 7.2 μM and <40% fibril formation at a concentration equal to that of WT-TTR (3.6 μM) (Hammarstrom, P.; et al. Science 2003, 299, 713-716; Klabunde, T.; et al. Nature Struct. Biol. 2000, 7, 312-321; Razavi, H.; et al. Angew Chem 2003, 42, 2758-2761; Miroy, G. J.; et al. Proc. Natl. Acad. Sci. USA 1996, 93, 15051-15056; Peterson, S. A.; et al. Proc. Natl. Acad. Sci. USA 1998, 95, 12956-12960; Baures, P. W.; et al. Bioorg. Med. Chem. 1998, 6, 1389-1401; Baures, P. W.; et al. Bioorg. Med. Chem. 1999, 7, 1339-1347; Petrassi, H. M.; et al. J. Am. Chem. Soc. 2000, 122, 2178-2192; McCammon, M. G.; et al. Structure 2002, 10, 851-863; Oza, V. B.; et al. J. Med. Chem. 2002, 45, 321-332; Saccheftini, J. C.; et al. Nature Rev. Drug Disc. 2002, 1, 267-275; Green, N. S.; et al. J. Am. Chem. Soc. 2003, 125, 13404-13414; Adamski-Werner, S. L.; et al. J. Med. Chem. 2004, 47, 355-374; Miller Sean, R.; et al. Lab. Inv. 2004, 84, 545-552). […] Therefore, when both the ligand and TTR are at equal concentrations, a population of TTR•I, TTR•I2 and unliganded TTR is observed, dictated by the dissociation constants. It is now established by other studies that inhibitor occupancy of only one of the two TTR binding sites is sufficient to stabilize the entire tetramer against amyloidogenesis (Wiseman, R. L.; et al. J. Am. Chem. Soc. 2005, in press). This is further supported by the observation herein that twenty-six of these dibenzofurans are excellent TTR amyloidogenesis inhibitors (<40% fibril formation) at a concentration equal to that of TTR (3.6 μM each, FIG. 3).

In data set [6] the target is T4, TTR (Homo sapiens, UniProt P02766).
T4 construct: made in house
The experiment in a line: analytical ultracentrifugation of TTR quaternary structure under amyloidogenic conditions. The conditions noted are these: 27 at 7.2 μM, TTR 3.6 μM, 72 h at pH 4.4, 37° C.; tetramer expected 55.0 kDa. As to the method:
To ensure that these C1-arylated dibenzofurans inhibit TTR fibril formation by native state stabilization (i.e. tetramer stabilization), we studied the TTR quaternary structure by analytical ultracentrifugation after a preincubation period of 72 h under amyloidogenic conditions (pH 4.4, 37° C.). […] In the absence of 27, TTR aggregated into very high molecular weight oligomers that sedimented rapidly in the ultracentrifugation experiment (data not shown). […]
FIG. 8 is a plot of the absorbance at 280 nm versus distance from the center in the sedimentation velocity study on TTR ([…]) after being preincubated with 27 ([…]) and after another incubation period where the pH was dropped to 4.4 for 72 h, a time frame that results in maximal amyloid formation in the absence of inhibitor. […]
FIG. 9 is a plot of the absorbance at 280 nm versus distance from the center in the equilibrium ultracentrifugation studies on TTR ([…]) after being preincubated with 27 ([…]) and after another incubation period where the pH was dropped to 4.4 for 72 h, a time frame that results in maximal amyloid formation in the absence of inhibitor. […]

Values joined by “and” are separate entries in the source; they are usually repeats but may differ in a detail not shown here. Equal values may be shown once.

With `O=C(O)c1cccc2c1oc1c(C(=O)O)cccc12` [Compound 1, dibenzofuran-4,6-dicarboxylic acid, reference compound], the “binding selectivity to TTR in human blood plasma” value in data set [1] was “no measurable binding selectivity”. In addition, in data set [2], the “decrease of the extent of WT-TTR amyloid formation” value was 90%.
`O=C(O)c1cccc2c1oc1c(C(=O)O)ccc(Nc3ccccc3C(F)(F)F)c12` [Compound 25]: the “rate of TTR amyloidogenesis mediated by partial acidification relative to control” value in data set [3] was “dramatically slowed in a dose-dependent fashion”. Also, the “order of effect on tetramer dissociation at the end of the time course” value in data set [4] (after 169 hours, 6.0 M urea, FIG. 11) is “most effective in dissociating tetramers”. The “rate of TTR tetramer dissociation in 6M urea” value (shortened to “rate … in 6M urea”) in data set [4] was “markedly slowed in a dose-dependent fashion”. Also, the “precipitation in the absence of TTR” value in data set [5] is given as “no measurable precipitation”.
On to `O=C(O)c1cccc2c1oc1c(C(=O)O)ccc(Nc3cccc(Cl)c3)c12` [Compound 27], for which, in data set [6], the “hydrodynamic molecular weight of TTR by equilibrium analytical ultracentrifugation” value is 55.1±0.4 kDa and 55.0±0.2 kDa; the “hydrodynamic molecular weight of TTR by sedimentation velocity” value is 57.1±0.3 kDa and 57.1±0.2 kDa. The “precipitation in the absence of TTR” value in data set [5] is recorded as “no measurable precipitation”.
Turning to `O=C(O)c1cccc2c1oc1c(C(=O)O)ccc(Oc3cc(Cl)cc(Cl)c3)c12` [Compound 47], the “order of fibrils formed at the end of the time course” value in data set [3] (after 169 hours, FIG. 10) is “shows the most fibrils formed”. In addition, the “rate of TTR amyloidogenesis mediated by partial acidification relative to control” value in data set [3] was “dramatically slowed in a dose-dependent fashion”. Moreover, the “rate … in 6M urea” value in data set [4] was “markedly slowed in a dose-dependent fashion”. Moreover, the “precipitation in the absence of TTR” value in data set [5] is reported as “no measurable precipitation”.
Consider `O=C(O)c1cccc2c1oc1c(C(=O)O)ccc(-c3cc(C(F)(F)F)cc(C(F)(F)F)c3)c12` [Compound 64], for which, in data set [3], the “rate of TTR amyloidogenesis mediated by partial acidification relative to control” value is reported as “dramatically slowed in a dose-dependent fashion”. Further, in data set [4], the “rate … in 6M urea” value is on record as “markedly slowed in a dose-dependent fashion”.

These data come from patent US20050261365A1, “Transthyretin stabilization” (The Scripps Research Institute, priority 2004, published 2005).
